Test results taken from US10538512B2, “Aminoacylindazole immunomodulators for treatment of autoimmune diseases” (The Rockefeller University, priority 2016, dated 2020).

Tests used:
[1] = biological target: T1, Human FXIIa (Homo sapiens, UniProt P00748); assay: Factor XIIa (FXIIa) inhibitory activity, chromogenic substrate assay; type: biochemical; settings: Human FXIIa 12.5 nM, Pefachrome XIIa 400 μM, 10 min preincubation
T1 construct: active coagulation factor XII (FXIIa); purchased Enzyme Research Labs
T1 sequence (P00748 373-615 limits assumed): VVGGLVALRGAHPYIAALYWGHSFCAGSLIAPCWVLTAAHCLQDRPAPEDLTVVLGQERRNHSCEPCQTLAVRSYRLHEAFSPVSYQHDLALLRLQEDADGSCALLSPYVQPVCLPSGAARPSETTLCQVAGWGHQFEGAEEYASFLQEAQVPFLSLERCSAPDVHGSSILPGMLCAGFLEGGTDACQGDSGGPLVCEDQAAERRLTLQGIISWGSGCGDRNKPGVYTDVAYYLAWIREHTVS
T1 sequence (P00748 20-372 partner limits assumed): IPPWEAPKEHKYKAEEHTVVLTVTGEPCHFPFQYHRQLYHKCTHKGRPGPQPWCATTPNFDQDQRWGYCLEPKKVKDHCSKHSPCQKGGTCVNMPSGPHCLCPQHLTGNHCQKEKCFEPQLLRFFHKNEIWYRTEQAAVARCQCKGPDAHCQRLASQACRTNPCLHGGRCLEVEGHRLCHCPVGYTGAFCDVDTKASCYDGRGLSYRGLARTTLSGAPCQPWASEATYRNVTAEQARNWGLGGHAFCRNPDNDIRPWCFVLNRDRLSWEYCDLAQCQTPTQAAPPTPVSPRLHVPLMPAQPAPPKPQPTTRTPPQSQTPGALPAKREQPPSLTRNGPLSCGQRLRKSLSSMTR
Outline: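 Activity was taken as the rate of absorbance increase at 405 nm, read at 37 °C after adding 400 μM (final) Pefachrome XIIa. Compounds spanning roughly 1–100 μM were first preincubated with enzyme for 10 min at room temperature in HEPES pH 7.4-buffered HBSS/TBS-Tween.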

[2] = biological target: T2, Human alpha-thrombin (Homo sapiens, UniProt P00734); assay: Thrombin counterscreen for selectivity, fluorogenic substrate assay; type: biochemical; settings: Human alpha-thrombin 12.5 nM, Boc-Val-Pro-Arg-AMC 20 μM, 10 min preincubation
T2 construct: Human alpha-thrombin (Enzyme Research Labs); purchased Enzyme Research Labs
Outline: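 Compounds, about 1–100 μM, preincubated 10 min at room temperature with enzyme, then Boc-Val-Pro-Arg-AMC added at 20 μM final.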

| Structure (SMILES) | IC50 [1] | IC50 [2] |
| --- | --- | --- |
| Nc1c2c(nn1C(=O)[C@H]1CCNc3ccccc31)CC[C@H](O)C2 (single isomer, unassigned) [Example 170, ((5S*)-3-amino-5-hydroxy-4,5,6,7-tetrahydroindazol-2-yl)((4S*)-1,2,3,4-tetrahydroquinolin-4-yl)methanone] | 6000 nM | > 150 µM |
| Nc1c2c(nn1C(=O)c1cccc3c1ccn3-c1ccccc1)CCCC2 (single isomer, unassigned) [Example 20, (3-amino-4,5,6,7-tetrahydroindazol-2-yl)(1-phenyl-1H-indol-4-yl)methanone] | 17500 nM | > 100 µM |
| Nc1c2c(nn1C(=O)[C@H]1CCNc3ccc(F)cc31)CC[C@@H](F)C2 (single isomer, unassigned) [Example 137, ((5R*)-3-amino-5-fluoro-4,5,6,7-tetrahydroindazol-2-yl)((4S*)-6-fluoro-1,2,3,4-tetrahydroquinolin-4-yl)methanone] | 60 nM | 29 µM |
| CC(C)(C)c1cccc(C(=O)n2nc3c(c2N)CCCC3)c1 [Example 31, (3-amino-4,5,6,7-tetrahydroindazol-2-yl)(3-tert-butylphenyl)methanone] | 150 nM | > 50 µM |
| Nc1nn(C(=O)[C@@H]2CCNc3ccccc32)c2c1C[C@@H](O)CC2 (single isomer, unassigned) [Example 172, ((5S*)-3-amino-5-hydroxy-4,5,6,7-tetrahydroindazol-1-yl)((4R*)-1,2,3,4-tetrahydroquinolin-4-yl)methanone] | > 100000 nM | > 100 µM |
| Nc1c2c(nn1C(=O)c1cccc3[nH]ccc13)CCCC2 (single isomer, unassigned) [Example 1, (3-Amino-4,5,6,7-tetrahydro-2H-indazol-2-yl)(1H-indol-4-yl)methanone] | 100 nM | 25 µM |
| CO[C@@H]1CCc2nn(C(=O)[C@@H]3CCNc4ccc(F)cc43)c(N)c2C1 (single isomer, unassigned) [Example 180, ((5R*)-3-amino-5-methoxy-4,5,6,7-tetrahydroindazol-2-yl)((4R*)-6-fluoro-1,2,3,4-tetrahydroquinolin-4-yl)methanone] | 90 nM | > 80 µM |
| Nc1c2c(nn1C(=O)[C@H]1CCNc3ccccc31)CC[C@@H](O)C2 (single isomer, unassigned) [Example 165, ((5R*)-3-amino-5-hydroxy-4,5,6,7-tetrahydroindazol-2-yl)((4S*)-1,2,3,4-tetrahydroquinolin-4-yl)methanone] | 350 nM | > 80 µM |
| Nc1c2c(nn1C(=O)[C@@H]1CCNc3c(Cl)cccc31)C[C@H](O)CC2 (single isomer, unassigned) [Example 210, ((6R*)-3-amino-6-hydroxy-4,5,6,7-tetrahydroindazol-2-yl)((4R*)-8-chloro-1,2,3,4-tetrahydroquinolin-4-yl)methanone] | 3300 nM | > 100 µM |
| Nc1c2c(nn1C(=O)c1coc3ccccc13)CCCC2 [Example 41, (3-amino-4,5,6,7-tetrahydroindazol-2-yl)(benzofuran-3-yl)methanone] | 1200 nM | > 100 µM |
| Nc1nn(C(=O)c2cccc3[nH]c(Br)cc23)c2c1CCCC2 (single isomer, unassigned) [Example 63, (3-amino-4,5,6,7-tetrahydroindazol-1-yl)(2-bromo-1H-indol-4-yl)methanone] | 65000 nM | > 100 µM |
